For 29 compounds, IC50 results are on record in patent US9247759B2, “Identification of human T2R receptors that respond to bitter compounds that elicit the bitter taste in compositions, and the use thereof in assays to identify compounds that inhibit (block) bitter taste in compositions and use thereof” (SENOMYX, INC., priority 2007, dated 2016).

The target in the test is hT2R8 (Homo sapiens (Human), UniProt Q9NYW2). The test is described as follows: hT2R8 antagonist high-throughput FLIPR assay, stable cell line with G16g44, agonist andrographolide. Format: cell-based. From the text: After a ligand is identified for a particular hT2R, a HEK293 cell line stably expressing both the hT2R and G16gust44 are generated, facilitating future screening assays to identify other ligands that activate the particular hT2R or which modulate (block or enhance) the activation of this hT2R by another bitter ligand such as a bitter compound contained in coffee. This avoids the need for transient transfection.
Sequence of hT2R8 (Q9NYW2 whole entry): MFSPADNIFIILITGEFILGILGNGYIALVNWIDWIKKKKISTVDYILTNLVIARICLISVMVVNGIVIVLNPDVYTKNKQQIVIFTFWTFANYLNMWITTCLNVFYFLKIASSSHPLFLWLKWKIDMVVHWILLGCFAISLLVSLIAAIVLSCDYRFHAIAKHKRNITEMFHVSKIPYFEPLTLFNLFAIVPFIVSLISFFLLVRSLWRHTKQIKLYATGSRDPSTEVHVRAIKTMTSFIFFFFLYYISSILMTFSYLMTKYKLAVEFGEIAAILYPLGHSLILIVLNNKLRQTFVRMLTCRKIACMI
To identify antagonists, cell lines stably expressing hT2R8 and hT2R14, respectively, together with the promiscuous chimeric G16g44 protein were generated as described in previous patent applications. A high-throughput assay was established using the stable cell lines and FLIPR (Fluorescent Imaging Plate Reader). An agonist of hT2R8 or hT2R14 was used to activate the receptors up to 70-80% of their respective maximal activity. For hT2R8, the agonist used was andrographolide (200 […]); for hT2R14, it was aristolochic acid (3 μM). To identify antagonists, compounds with diverse chemical structures were added together with the agonist.
To identify antagonists, cell lines stably expressing hT2R8 together with the promiscuous chimeric G16g44 protein were generated as described in previous patent applications. A high-throughput assay was established using the stable cell lines and FLIPR (Fluorescent Imaging Plate Reader). An agonist of hT2R8 was used to activate the receptors up to 70-80% of their respective maximal activity. For hT2R8, the agonist used was andrographolide (200 μM). To identify antagonists, compounds with diverse chemical structures were added together with the agonist.

Setting [1] is: table after Example 12-37, read-out: hT2R8 IC50.
Where [2] appears, read: read-out: IC50 on hT2R8 bitter receptor.
[3] abbreviates: table after Example 10-97, read-out: hT2R8 IC50.
The mark [4] stands for this setting: unit uM, read-out: IC50 on hT2R08 bitter receptor.

Read-outs that look alike come from different tables or passages of the source.

Turning to `COCCOc1cccc(CN2C(=O)N(c3cnn(Cc4c(C)noc4C)c3)C(=O)C2(C)C)c1` [Example 12-80, 3-(1-((3,5-dimethylisoxazol-4-yl)methyl)-1H-pyrazol-4-yl)-1-(3-(2-methoxyethoxy)benzyl)-5,5-dimethylimidazolidine-2,4-dione], the half-inhibitory concentration (IC50) under setting [1] is 0.71 µM.
For the compound `COc1ccc(CN2C(=O)N(c3cnn(Cc4c(C)noc4C)c3)C(=O)C2(C)C)cc1C` [Example 12-76, 3-(1-((3,5-dimethylisoxazol-4-yl)methyl)-1H-pyrazol-4-yl)-1-(4-methoxy-3-methylbenzyl)-5,5-dimethylimidazolidine-2,4-dione], under setting [1], the half-inhibitory concentration (IC50) is 0.54 µM.
As for `COc1ccc(CCN2CC(=O)N(c3cnn(Cc4c(C)noc4C)c3)C2=O)cc1` [Example 10-79, 3-(1-((3,5-dimethylisoxazol-4-yl)methyl)-1H-pyrazol-4-yl)-1-(4-methoxyphenethyl)imidazolidine-2,4-dione], the IC50 under setting [2] turned out to be 0.04 µM and the IC50 under setting [3] was determined as 0.044 µM.
For `Cc1noc(C)c1Cn1cc(N2C(=O)NC(C)C2=O)cn1` (centres unmarked) [Example 10-41, 3-(1-((3,5-dimethylisoxazol-4-yl)methyl)-1H-pyrazol-4-yl)-5-methylimidazolidine-2,4-dione], the IC50 under setting [2] was 1.3 µM and the 50% inhibitory concentration (IC50) under setting [3] was found to be 1.28 µM.
Regarding `COc1ccc(CCN2CC(=O)N(c3cnn(Cc4c(C)noc4C)c3)C2=O)cc1OC` [Example 10-87, 1-(3,4-dimethoxyphenethyl)-3-(1-((3,5-dimethylisoxazol-4-yl)methyl)-1H-pyrazol-4-yl)imidazolidine-2,4-dione], the IC50 under setting [2] was 0.26 µM and the IC50 under setting [3] was found to be 0.137 µM.
`COCCN1C(=O)N(c2cnn(Cc3c(C)noc3C)c2)C(=O)C1(C)C` [Example 12-28, 3-(1-((3,5-dimethylisoxazol-4-yl)methyl)-1H-pyrazol-4-yl)-1-(2-methoxyethyl)-5,5-dimethylimidazolidine-2,4-dione]: the IC50 under setting [2] came to 0.59 µM.
`Cc1noc(C)c1Cn1cc(N2C(=O)N(Cc3ccn(C)n3)C(C)(C)C2=O)cn1` [Example 12-71, 3-(1-((3,5-dimethylisoxazol-4-yl)methyl)-1H-pyrazol-4-yl)-5,5-dimethyl-1-((1-methyl-1H-pyrazol-3-yl)methyl)imidazolidine-2,4-dione]: the 50% inhibitory concentration (IC50) under setting [1] was 0.42 µM.
Same read-out and setting: as for `Cc1noc(C)c1Cn1cc(N2C(=O)N(CCCc3ccccc3)C(C)(C)C2=O)cn1` [Example 12-78, 3-(1-((3,5-dimethylisoxazol-4-yl)methyl)-1H-pyrazol-4-yl)-5,5-dimethyl-1-(3-phenylpropyl)imidazolidine-2,4-dione], the figure is 0.58 µM.
In the case of `Cc1noc(C)c1Cn1cc(NC(=O)c2ccc3[nH]nnc3c2)cn1` [Example 4-87, N-(1-((3,5-dimethylisoxazol-4-yl)methyl)-1H-pyrazol-4-yl)-1H-benzo[d][1,2,3]triazole-5-carboxamide], the IC50 (Table A, read-out: hT2R8 IC50) turned out to be 0.6 µM.
With `Cc1noc(C)c1Cn1cc(NC(=O)c2ccc3nccnc3c2)cn1` [Example 4-82, N-(1-((3,5-dimethylisoxazol-4-yl)methyl)-1H-pyrazol-4-yl)quinoxaline-6-carboxamide], under “Table A, read-out: hT2R8 IC50”, the concentration for half-maximal inhibition (IC50) was 0.8 µM.
Regarding `Cc1noc(C)c1Cn1cc(N2C(=O)CN(Cc3cccc(CNC(=O)OC(C)(C)C)c3)C2=O)cn1` [Example 10-96, tert-butyl 3-((3-(1-((3,5-dimethylisoxazol-4-yl)methyl)-1H-pyrazol-4-yl)-2,4-dioxoimidazolidin-1-yl)methyl)benzylcarbamate], the half-inhibitory concentration (IC50) under setting [2] came out at 0.9 µM and the half-maximal inhibitory concentration (IC50) under setting [3] was determined as 0.891 µM.
`Cc1ccccc1CN1C(=O)N(c2cnn(Cc3c(C)noc3C)c2)C(=O)C1(C)C` [Example 12-22, 3-(1-((3,5-dimethylisoxazol-4-yl)methyl)-1H-pyrazol-4-yl)-5,5-dimethyl-1-(2-methylbenzyl)imidazolidine-2,4-dione]: the IC50 under setting [2] stood at 0.1 µM.
On the same count and under the same terms, the figure for `Cc1noc(C)c1Cn1cc(N2C(=O)N(Cc3cc(C)n(C)n3)C(C)(C)C2=O)cn1` [Example 12-25, 1-((1,5-dimethyl-1H-pyrazol-3-yl)methyl)-3-(1-((3,5-dimethylisoxazol-4-yl)methyl)-1H-pyrazol-4-yl)-5,5-dimethylimidazolidine-2,4-dione] is 0.16 µM.
Turning to `COc1ccc(O)c(C(=O)Nc2cnn(Cc3c(C)noc3C)c2)c1` [Example 4-27, N-(1-((3,5-dimethylisoxazol-4-yl)methyl)-1H-pyrazol-4-yl)-2-hydroxy-5-methoxybenzamide], the half-inhibitory concentration (IC50) (Table A, read-out: hT2R8 IC50) was 0.98 µM.
Turning to `Cc1noc(C)c1Cn1cc(N2C(=O)C3Cc4cc(O)ccc4CN3C2=O)cn1` (centres unmarked) [Example 13-3, 2-(1-((3,5-dimethylisoxazol-4-yl)methyl)-1H-pyrazol-4-yl)-8-hydroxy-10,10a-dihydroimidazo[1,5-b]isoquinoline-1,3(2H,5H)-dione], the concentration for half-maximal inhibition (IC50) under setting [2] was 0.03 µM.
Take `Cc1noc(C)c1Cn1cc(N2C(=O)N[C@H](Cc3ccccc3)C2=O)cn1` [Example 10-4, (R)-5-benzyl-3-(1-((3,5-dimethylisoxazol-4-yl)methyl)-1H-pyrazol-4-yl)imidazolidine-2,4-dione]: the IC50 under setting [2] came to 0.11 µM and the IC50 under setting [3] came to 0.112 µM.
Consider `COCCOc1cccc(CN2CC(=O)N(c3cnn(Cc4c(C)noc4C)c3)C2=O)c1` [Example 10-14, 3-(1-((3,5-dimethylisoxazol-4-yl)methyl)-1H-pyrazol-4-yl)-1-(3-(2-methoxyethoxy)benzyl)imidazolidine-2,4-dione], for which the IC50 was 0.071 µM under setting [3] and 0.07 µM under setting [4].
For `Cc1noc(C)c1Cn1cc(N(C)C(=O)C(C)c2ccccc2)cn1` (centres unmarked) [Example 4-97, N-(1-((3,5-dimethylisoxazol-4-yl)methyl)-1H-pyrazol-4-yl)-N-methyl-2-phenylpropanamide], the IC50 (Table A, read-out: hT2R8 IC50) amounted to 2.13 µM.
Consider `COC(=O)COc1cccc(CN2C(=O)N(c3cnn(Cc4c(C)noc4C)c3)C(=O)C2(C)C)c1` [Example 12-75, methyl 2-(3-((3-(1-((3,5-dimethylisoxazol-4-yl)methyl)-1H-pyrazol-4-yl)-5,5-dimethyl-2,4-dioxoimidazolidin-1-yl)methyl)phenoxy)acetate], for which, under setting [1], the concentration for half-maximal inhibition (IC50) is 0.53 µM.
As for `Cc1noc(C)c1Cn1cc(N2C(=O)N(Cc3cccc(O)c3)C3(CCCC3)C2=O)cn1` [Example 12-5, 3-(1-((3,5-dimethylisoxazol-4-yl)methyl)-1H-pyrazol-4-yl)-1-(3-hydroxybenzyl)-1,3-diazaspiro[4.4]nonane-2,4-dione], the IC50 under setting [2] came to 0.07 µM.
Take `Cc1nc2cc(C(=O)Nc3cnn(Cc4c(C)noc4C)c3)ccc2[nH]1` [Example 4-79, N-(1-((3,5-dimethylisoxazol-4-yl)methyl)-1H-pyrazol-4-yl)-2-methyl-1H-benzo[d]imidazole-5-carboxamide]: the IC50 (Table A, read-out: hT2R8 IC50) stood at 1 µM.
The same measure, in the same setting: as for `Cc1noc(C)c1Cn1cc(NC(=O)c2cccc(Cl)c2)cn1` [Example 4-80, 3-chloro-N-(1-((3,5-dimethylisoxazol-4-yl)methyl)-1H-pyrazol-4-yl)benzamide], the figure is 0.9 µM.
Regarding `Cc1noc(C)c1Cn1cc(N2C(=O)N(Cc3ccncc3)C(C)(C)C2=O)cn1` [Example 12-52, 3-(1-((3,5-dimethylisoxazol-4-yl)methyl)-1H-pyrazol-4-yl)-5,5-dimethyl-1-(pyridin-4-ylmethyl)imidazolidine-2,4-dione], under setting [1], the IC50 came out at 0.19 µM.
In the case of `Cc1noc(C)c1Cn1cc(N2C(=O)N(C(C)c3ccccc3)C(C)(C)C2=O)cn1` (centres unmarked) [Example 12-24, 3-(1-((3,5-dimethylisoxazol-4-yl)methyl)-1H-pyrazol-4-yl)-5,5-dimethyl-1-(1-phenylethyl)imidazolidine-2,4-dione], the IC50 under setting [2] was 0.15 µM.
For `Cc1noc(C)c1Cn1cc(N2C(=O)CN(Cc3ccc(F)cc3)C2=O)cn1` [Example 10-31, 3-(1-((3,5-dimethylisoxazol-4-yl)methyl)-1H-pyrazol-4-yl)-1-(4-fluorobenzyl)imidazolidine-2,4-dione], the IC50 by setting is: under setting [3], 0.045 µM; under setting [4], 0.05 µM.
As for `Cc1noc(C)c1Cn1cc(N2C(=O)CN(CCc3ccc(F)cc3)C2=O)cn1` [Example 10-84, 3-(1-((3,5-dimethylisoxazol-4-yl)methyl)-1H-pyrazol-4-yl)-1-(4-fluorophenethyl)imidazolidine-2,4-dione], the IC50 under setting [2] turned out to be 0.01 µM and the IC50 under setting [3] was 0.027 µM.
`COc1ccc(CN2CC(=O)N(c3cnn(Cc4c(C)noc4C)c3)C2=O)cc1O` [Example 10-13, 3-(1-((3,5-dimethylisoxazol-4-yl)methyl)-1H-pyrazol-4-yl)-1-(3-hydroxy-4-methoxybenzyl)imidazolidine-2,4-dione]: the IC50 is 0.087 µM under setting [3] and 0.1 µM under setting [4].
Regarding `Cc1noc(C)c1Cn1cc(N2C(=O)N(Cc3cccc(F)c3F)C(C)(C)C2=O)cn1` [Example 12-66, 1-(2,3-difluorobenzyl)-3-(1-((3,5-dimethylisoxazol-4-yl)methyl)-1H-pyrazol-4-yl)-5,5-dimethylimidazolidine-2,4-dione], under setting [1], the 50% inhibitory concentration (IC50) is 0.31 µM.
As to `COc1cc(CN2C(=O)N(c3cnn(Cc4c(C)noc4C)c3)C(=O)C2(C)C)ccc1F` [Example 12-20, 3-(1-((3,5-dimethylisoxazol-4-yl)methyl)-1H-pyrazol-4-yl)-1-(4-fluoro-3-methoxybenzyl)-5,5-dimethylimidazolidine-2,4-dione], the IC50 under setting [2] amounted to 0.18 µM.
